Columns and labels:
[1] = Water solubility of the powder; assay type: physicochemical; details: in words
[2] = test system: plasmid DNA damaged by OH° radical (hydrogen peroxide + UVB); assay: "3D" test (Damaged DNA Detection): protection of DNA against OH° radicals; assay type: biochemical; details: for Specific protection: OH° radical
Experimental: The free-radical-scavenging effects of the phloridzin-rich polyphenolic fractions obtained according to the process of the invention were measured in vitro by the “3D” test (Damaged DNA Detection, Analytical Biochemistry, (1995), pp. 37-42).
The principle is based on repairing DNA lesions, the damaged DNA being used as a marker of protective efficacy of the test molecules with respect to free OH^∘ radicals: the reduction in lesions observed on the DNA is correlated with the trapping of the free radicals.
This test carried out on plasmid DNA allows the detection of genotoxic agents at the early stage of the lesion-mutation-cancerization process. Molecules or mixtures with antioxidant or free-radical-scavenging properties, which can thus protect a human cell from oxidative damage caused by reactive oxygenated species (ROSs), can thus be detected.
The protocol was as follows: • the target DNA was adsorbed onto sensitized wells and then incubated with genotoxic agents in the presence or absence of the polyphenolic extract to be tested (dissolved in an ethanol solution at 2% or in DMSO) or in the presence of catechin (control). In this test, the OH^∘ radical produced by homolytic cleavage of hydrogen peroxide was used as DNA-damaging genotoxic agent. The hydrogen peroxide was added to the wells, which were then irradiated with UVB rays (700 J/m^2). Furthermore, a positive repair control consisting of a plasmid DNA predamaged with ultraviolet C radiation was added; • a step of washing with ultrapure water and then with a dioxane solution at 20% in ultrapure water for 5 minutes at 30° C. with gentle stirring made it possible to remove the non-specific interactions between the sample and the test, due to the presence of macromolecules such as proteins that may interfere with the repair signal; • a repair step was performed in the presence of purified cell extracts (which contain the active enzymes of the various DNA lesion repair pathways) and of biotin-coupled modified nucleotides (dUTP). The repair of the lesions involved a phase of excision of the lesions followed by a resynthesis of the DNA fragment or of excised bases. […] The light signal observed and read on the luminometer was proportional to the amount of lesions repaired.
The percentage of protection observed in the presence of ROSs was calculated as the relative reduction of the lesional effect due to the OH^∘ species, that is to say: % protection={[RLU oxidant−RLU (oxidant+sample)]/RLU oxidant}×100 • where RLU=relative light units (arbitrary units of quantity of light).
The specific percentage of protection was corrected by the percentage of non-specific inhibition measured on the samples predamaged with UVC. It is an indication of the free-radical-scavenging activity due to the only added extracts.
The IC50 is the concentration in mg/ml of test product which gives 50% protective activity against the genotoxic agent OH^∘. The lower the value, the greater the antioxidant activity of the test product.

Row | Water solubility [1] | Molecule | Specific protection ([2]; concentration 0.016 mg/ml) [%] | Specific protection ([2]; concentration 0.06 mg/ml) [%] | Specific protection ([2]; concentration 0.25 mg/ml) [%] | Specific protection ([2]; concentration 1 mg/ml) [%] | IC50 ([2]; concentration giving 50% protective activity against the genotoxic agent OH°) [µg/mL]
1 | very low solubility | O=C(CCc1ccc(O)cc1)c1c(O)cc(O)cc1O [phloretin] |  |  |  |  | 
2 |  | Catechin | 16 | 28 | 52 | 65 | 240
